Test results as given in paper PMC10504053, “First-in-Human PET Imaging of [^18F]SDM-4MP3: A Cautionary Tale” (Molecular Imaging, 2023).

Tests used:
[1] = target: SV2A; design: method as in PMID 34722967, PMID 24446373; settings: affinity to SV2A, in vitro binding; cited from earlier work
[2] = target: T1, synaptic vesicle protein 2A (SV2A) (Rattus norvegicus, UniProt Q02563); assay: Preclinical PET imaging in rats (whole-brain uptake); assay type: in vivo, Sprague-Dawley rats; settings: for initial peak uptake in the rodent brain: rat whole-brain time-activity curve
T1 construct: from tissue; host or cells: brain of living Sprague-Dawley rats (in vivo PET)
Description: Preclinical PET imaging studies were approved by the Animal Care Committee at CAMH (Animal Use Protocol #838). Six adult Sprague-Dawley rats were scanned for 120 min on either a Mediso nanoScan PET/MR 3 T or PET/CT scanner (Budapest, Hungary), and the images were analyzed using VivoQuant® software (version 4.1, Invicro LLC, Needham, MA, USA), as described previously. Five rats (3 M/2F, 528 ± 46 g) were used for the baseline [^18F]SynVesT-1 scans (injected dose: 13.3 ± 3.2 MBq; molar activity: 157 ± 64 GBq/μmol; mass injected: 0.22 ± 0.08 nmol/kg), with two of the male rats also scanned after injection of the blocking drug levetiracetam (cat#L1784, LKT Laboratories Inc, St Paul, MN, USA) at 30 mg/kg (i.v., 15 min before the tracer; injected dose: 10.2 ± 0.1 MBq; molar activity: 78 ± 15 GBq/μmol; injected mass: 0.24 ± 0.04 nmol/kg). One female rat (273 g) was used for the 120 min scan with [^18F]SDM-4MP3 (injected dose: 13.0 MBq; molar activity: 125.5 GBq/μmol; injected mass: 0.38 nmol/kg). Acquired list mode data were sorted into thirty-nine 3-dimensional (3D) (3 × 5 s, 3 × 15 s, 3 × 20 s, 7 × 60 s, 17 × 180 s, and 6 × 600 s) true sinograms (ring difference 84) and reconstructed with a 2D filtered back-projection algorithm with corrections for detector geometry, efficiencies, attenuation, and scatter and dead time and were decay-corrected to the start of acquisition. Static images of the complete emission acquisition (0-120 min) were reconstructed with the manufacturer's proprietary iterative 3D algorithm (6 subsets and 4 iterations). SUVs were calculated by normalizing regional radioactivity for injected radioactivity and body weight.

[3] = target: T2, synaptic vesicle protein 2A (SV2A) (Homo sapiens, UniProt Q7L0J3); assay: Human brain PET imaging (SUV, SUVR, 1-TCM VT with arterial input function); assay type: in vivo; settings: for VT (SE %) from fitting of 1-TCM: human brain PET; for SUVR: 60-90 min, centrum semiovale reference; for time of peak brain uptake: P1 ([18F]SDM-4MP3) vs P3 ([18F]SynVesT-1)
T2 construct: from tissue; host or cells: brain of living human participants (in vivo PET)
Text: All human components of the study were approved according to the Research Ethics Board for Human Subjects at CAMH (CTA 125, REB 075/2019). All participants were recruited from the community and provided written informed consent. Participant inclusion criteria were self-report of good health. Exclusion criteria included any history of neurological or psychiatric disorder; cognitive impairment according to MoCA assessment (score less than 26); pregnancy and/or nursing; and disorders of coagulation, blood, or ongoing use of anticoagulant medication. Each participant's height, weight, current medications, and smoking status was recorded. Participants abstained from taking […] medications, including aspirin [13], for 24 hours prior to the PET exam (see Table 1).
Participants were scanned on a 5-ring GE Discovery MI PET/CT (GE Healthcare Technologies, Chicago, Illinois). Participants 1 and 2 (P1 and P2) were scanned with [^18F]SDM-4MP3 (the radiopharmaceutical synthesized from the ABX precursor), and [^18F]SynVesT-1 (synthesized from the Yale precursor) was used for PET imaging of participants 3 and 4 (P3 and P4). A thermoplastic facemask (Tru-Scan Imaging, Annapolis) was used to restrict head motion within the PET scanner bore. CT was used to acquire a scout scan, followed by a low-dose scan for attenuation correction. The radiopharmaceutical (target dose 185 MBq ± 10%, molar activity > 11 GBq/μmol) was delivered starting 30 s after the initiation of the emission scan, with a smooth bolus injection by hand (2-5 s) via intravenous line placed in the antecubital vein, followed by a 10 mL saline flush to clear residual activity from the line. Emission data was acquired for 120-125 min, allowing up to 5 min for a background frame sampled at 1 s intervals to determine the precise starting time of brain uptake, and used to establish the duration of the background frame inserted prior to dynamic frame reconstruction. Data acquired after the start of brain uptake was reconstructed into frames using FORE rebinning and filtered back-projection, using a Hanning filter at the Nyquist frequency to create a dynamic image set. Frame definitions were 30 s × 3, 60 s × 3, 120 s × 2, 300 s × 22 (total = 120 min). For use as a reference for motion correction, images were also reconstructed without attenuation correction using an iterative method with 4 subsets and 6 iterations. All reconstructions were performed using vendor algorithms on the GE DMI console. […] A spatial resolution of approximately 5.8 × 5.8 × 5.6 mm was achieved (measured in accordance with National Electrical Manufacturers Association NU 2-2007 standards). The mean injected activity was 192.7 MBq for [^18F]SDM-4MP3 and 184.3 MBq for [^18F]SynVesT-1 (Table 1).
(§1) The arterial line was placed into the radial artery by a qualified respiratory therapist. Up to 160 mL of arterial blood was collected via automated blood sampler (ABSS, Comecer PBS-101) and via manual samples for plasma metabolite correction. The ABSS protocol was started ~15 s after emission scan start, and pump speed was set to 300 mL/h, to reduce dispersion in ABSS lines during maximum rate of change of arterial activity concentration, at 1 s sampling period for 5 min and 2 s sampling period for 136 s. Pump speed was decreased to 180 mL/h at a sampling period of 5 s for the following 360 s and a sampling period of 10 s for 540 s, for a total sampling time of 22 min and 16 s. Manual samples were collected at baseline, 2.5, 7, 12, 15, 20, 30, 45, 60, 90, and 110 min relative to emission scan start into PTFE tubes, followed by a saline flush for all except 2.5- and 7-min samples to avoid discontinuities in arterial data during peak uptake.
(1) Image Registration and Region of Interest. […]

[4] = Arterial plasma radiometabolite analysis (column-switching HPLC) in human participants; assay type: in vivo; settings: human arterial plasma parent fraction, compared with [18F]SynVesT-1
Description: as §1, with “Manual samples were collected at baseline, 2.5, 7, 12, 15, 20, 30, 45, 60, 90, and 110 min relative to emission scan start into PTFE tubes, followed by a saline flush for all except 2.5- and 7-min samples to avoid discontinuities in arterial data during peak uptake.” left out
Baseline whole blood samples were centrifuged at 3100 RPM at room temperature for 5 min to extract plasma. […] Each subsequent manual sample was centrifuged at 3900 rpm at 4°C for 5 min, and 0.3 mL of whole blood and 0.3 mL of plasma were extracted and measured on a gamma counter (Wizard 2480, Perkin Elmer, Turku, Finland) to quantify activity concentration.
(1) Column-Switching HPLC. […] Samples were initially analyzed in capture mode with the capture solvent flow rate of 1.8 mL/min for 4 min before switching to analysis mode with the analysis solvent running at 1.8 mL/min for an additional 12 min. […]

[5] = human brain time-activity curves

T2 sequence (Q7L0J3 whole entry): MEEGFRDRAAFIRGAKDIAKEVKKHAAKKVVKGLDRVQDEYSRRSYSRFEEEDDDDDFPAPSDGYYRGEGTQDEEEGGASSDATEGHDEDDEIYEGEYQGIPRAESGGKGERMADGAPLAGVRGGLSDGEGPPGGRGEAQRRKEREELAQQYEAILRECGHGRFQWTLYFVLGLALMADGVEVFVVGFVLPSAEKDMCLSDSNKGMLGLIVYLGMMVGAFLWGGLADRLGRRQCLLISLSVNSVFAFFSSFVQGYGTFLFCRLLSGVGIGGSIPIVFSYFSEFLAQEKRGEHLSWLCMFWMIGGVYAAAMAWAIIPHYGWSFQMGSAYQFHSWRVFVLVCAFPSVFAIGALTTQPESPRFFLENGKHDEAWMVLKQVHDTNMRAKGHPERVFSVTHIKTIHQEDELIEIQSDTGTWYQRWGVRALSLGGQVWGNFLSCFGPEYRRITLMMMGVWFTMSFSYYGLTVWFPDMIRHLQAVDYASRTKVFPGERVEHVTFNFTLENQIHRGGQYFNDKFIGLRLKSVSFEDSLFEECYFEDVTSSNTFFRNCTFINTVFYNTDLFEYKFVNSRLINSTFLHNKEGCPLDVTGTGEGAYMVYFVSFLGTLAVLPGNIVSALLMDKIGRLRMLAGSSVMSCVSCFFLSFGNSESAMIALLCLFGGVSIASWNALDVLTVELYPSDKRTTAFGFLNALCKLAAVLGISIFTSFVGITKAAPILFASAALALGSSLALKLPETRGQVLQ
T1 sequence (Q02563 whole entry): as the sequence (Q7L0J3 whole entry) above, with D53E, S62A, T71A, E144D, A154T, G440S, S482A, I572V, M634L counted along it

## Cc1cnccc1CN1C[C@@H](c2cc(F)cc(F)c2)CC1=O [SynVesT-1]
[1]
  Ki: 3.1 nM

## Cc1cnccc1CN1C[C@@H](c2cc(F)cc([18F])c2)CC1=O [[^18F]SynVesT-1, reference compound]
[2]; baseline
  initial peak uptake in the rodent brain: 7.6 ± 0.7 SUV
[2]; rat, 0-120 min static image, baseline
  brain uptake SUVs in static image: ~8 SUV
[3]; Centrum semiovale, participant P3
  VT (SE %) from fitting of 1-TCM: 2.9 (1.4%)
[3]; Centrum semiovale, participant P4
  VT (SE %) from fitting of 1-TCM: 3.5 (7.7%)
[3]; Cerebellum, participant P3
  VT (SE %) from fitting of 1-TCM: 13.1 (0.7%)
[3]; Cerebellum, participant P4
  VT (SE %) from fitting of 1-TCM: 16.3 (4.9%)
[3]; Frontal cortex, participant P3
  VT (SE %) from fitting of 1-TCM: 15.4 (0.4%)
[3]; Frontal cortex, participant P4
  VT (SE %) from fitting of 1-TCM: 18.3 (5.1%)
[3]; Hippocampus, participant P3
  VT (SE %) from fitting of 1-TCM: 14.9 (0.6%)
[3]; Hippocampus, participant P4
  VT (SE %) from fitting of 1-TCM: 17.0 (6.2%)
[3]; Putamen, participant P3
  VT (SE %) from fitting of 1-TCM: 16.1 (0.5%)
[3]; Putamen, participant P4
  VT (SE %) from fitting of 1-TCM: 22.23 (4.7%)
[3]; cortical regions, human
  SUVR: greater than 7
[3]; [5]
  time of peak brain uptake: 20 min

## Cc1ccncc1CN1CC(c2cc(F)cc(F)c2)CC1=O (centres unmarked) [SDM-4MP3]
[1]
  Ki: 291 nM

## Cc1ccncc1CN1C[C@@H](c2cc(F)cc([18F])c2)CC1=O [[^18F]SDM-4MP3]
[2]; baseline
  initial peak uptake in the rodent brain: 3.2 SUV
[2]; rat, barely above tissues outside of the brain
  brain uptake in 0-120 min static image: very limited brain uptake
[2]; rat, vs. [18F]SynVesT-1
  whole-brain TAC clearance: much faster clearance
[2]; rat, comparator scans after levetiracetam 30 mg/kg i.v. 15 min before tracer
  brain uptake relative to blocked [18F]SynVesT-1 scans: lower than [^18F]SynVesT-1 scans performed under preblocking conditions with levetiracetam
[4]
  rate of radiometabolism: slightly slower
[3]; Centrum semiovale, participant P1
  VT (SE %) from fitting of 1-TCM: 1.6 (1.8%)
[3]; Centrum semiovale, participant P2
  VT (SE %) from fitting of 1-TCM: 1.7 (2.0%)
[3]; Cerebellum, participant P1
  VT (SE %) from fitting of 1-TCM: 1.6 (1.4%)
[3]; Frontal cortex, participant P1
  VT (SE %) from fitting of 1-TCM: 1.8 (1.6%)
[3]; Frontal cortex, participant P2
  VT (SE %) from fitting of 1-TCM: 1.9 (3.4%)
[3]; Hippocampus, participant P1
  VT (SE %) from fitting of 1-TCM: 1.8 (1.4%)
[3]; Hippocampus, participant P2
  VT (SE %) from fitting of 1-TCM: 1.8 (3.4%)
[3]; Putamen, participant P1
  VT (SE %) from fitting of 1-TCM: 2.0 (1.3%)
[3]; Putamen, participant P2
  VT (SE %) from fitting of 1-TCM: 2.1 (3.4%)
[3]; human brain time-activity curves, P1
  initial brain penetration (SUV): ~ 7 SUV
[3]; human brain time-activity curves, in contrast to [18F]SynVesT-1
  clearance from brain: rapid clearance from brain
[3]; [5]
  time of peak brain uptake: 2.5 min
[3]; human, one-tissue compartment model, vs expected for [18F]SynVesT-1
  factor by which VT estimates were lower than expected: > 10
[3]; throughout the brain, human
  SUVR: under 2
